From patent US20260083851A1 (AVILAR THERAPEUTICS, INC., priority 2022, published 2026)

biological target: T1, ASGP receptor (biotinylated ASGPR) (Homo sapiens, UniProt P07306); assay type: binding; settings: SPR, Biacore 8K, 25° C.; Table 1A; read-out: ASGPR KD
T1 construct: biotin (biotinylated)
T1 sequence (P07306 1-291): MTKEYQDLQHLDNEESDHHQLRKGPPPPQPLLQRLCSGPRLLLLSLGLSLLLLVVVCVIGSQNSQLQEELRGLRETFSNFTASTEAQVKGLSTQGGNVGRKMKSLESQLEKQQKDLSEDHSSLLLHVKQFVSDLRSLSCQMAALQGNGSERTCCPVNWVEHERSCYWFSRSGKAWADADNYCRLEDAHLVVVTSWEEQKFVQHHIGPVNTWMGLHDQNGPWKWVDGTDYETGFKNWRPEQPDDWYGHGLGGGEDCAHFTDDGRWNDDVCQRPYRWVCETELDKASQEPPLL

Structure (SMILES)	Kd [µM]
O[C@@H]1[C@H](O)[C@@H](Nc2cncc(C(F)(F)F)n2)CO[C@@H]1CNc1ncccn1 [A19, (2R,3R,4R,5S)-2-((pyrimidin-2-ylamino)methyl)-5-((6-(trifluoromethyl)pyrazin-2-yl)amino)tetrahydro-2H-pyran-3,4-diol]	< 10
O[C@@H]1[C@H](O)[C@@H](Nc2cncc(C(F)(F)F)n2)CO[C@@H]1CN1CCCCCC1 [A70, (2R,3R,4R,5S)-2-(azepan-1-ylmethyl)-5-((6-(trifluoromethyl)pyrazin-2-yl)amino)tetrahydro-2H-pyran-3,4-diol]	< 10
COCCO[C@H]1O[C@H](CO)[C@H](O)[C@H](O)[C@H]1Nc1cncc(C(F)(F)F)n1 [A5]	< 10
CC(=O)N1C[C@H](Nc2cncc(C(F)(F)F)n2)[C@@H](O)[C@@H](O)C1 [A102, 1-((3S,4R,5S)-3,4-dihydroxy-5-((6-(trifluoromethyl)pyrazin-2-yl)amino)piperidin-1-yl)ethan-1-one]	< 10
O=C(NC[C@H]1OC[C@H](Nc2cncc(C(F)(F)F)n2)[C@@H](O)[C@H]1O)c1ccc2c(n1)CCCN2 [A88, N-(((2R,3R,4R,5S)-3,4-dihydroxy-5-((6-(trifluoromethyl)pyrazin-2-yl)amino)tetrahydro-2H-pyran-2-yl)methyl)-5,6,7,8-tetrahydro-1,5-naphthyridine-2-carboxamide]	< 10
OC[C@H]1CC[C@H](Nc2nccc(C(F)(F)F)n2)[C@@H](O)[C@H]1O [A54, (1R,2S,3R,6S)-3-(hydroxymethyl)-6-((4-(trifluoromethyl)pyrimidin-2-yl)amino)cyclohexane-1,2-diol]	10 to 100
OC[C@H]1O[C@H](c2ccccc2)[C@H](Nc2nccc(C(F)(F)F)n2)[C@@H](O)[C@H]1O [A96, (2R,3R,4R,5R,6R)-2-(hydroxymethyl)-6-phenyl-5-((4-(trifluoromethyl)pyrimidin-2-yl)amino)tetrahydro-2H-pyran-3,4-diol]	< 10

same assay, conditions: SPR, Biacore 8K, 25° C.; Table 1B, numeric bound; read-out: ASGPR Kd

Structure (SMILES)	Kd [µM]
OC[C@H]1OC[C@H](NC2CCCC(C(F)(F)F)C2)[C@@H](O)[C@H]1O (stereo partly drawn) [A158, (2R,3R,4R,5S)-2-(hydroxymethyl)-5-((3-(trifluoromethyl)cyclohexyl)amino) tetrahydro-2H-pyran-3,4-diol]	> 30
OC[C@H]1OC[C@H](NC2CCCCC2)[C@@H](O)[C@H]1O [A159, (2R,3R,4R,5S)-5-(cyclohexylamino)-2-(hydroxymethyl)tetrahydro-2H-pyran-3,4-diol]	> 30
CC(C)N[C@H]1CO[C@H](CO)[C@H](O)[C@@H]1O [A163, (2R,3R,4R,5S)-2-(hydroxymethyl)-5-(isopropylamino)tetrahydro-2H-pyran-3,4-diol]	> 30

same assay, conditions: SPR, Biacore 8K, 25° C.; Table 1B; read-out: ASGPR Kd

Structure (SMILES)	Kd [µM]
O=C(OCc1ccccc1)N1C[C@H](Nc2cncc(C(F)(F)F)n2)[C@@H](O)[C@@H](O)C1 [A149, benzyl (3S,4R,5S)-3,4-dihydroxy-5-((6-(trifluoromethyl)pyrazin-2-yl)amino)piperidine-1-carboxylate]	< 10
COc1cncnc1N[C@H]1CO[C@H](CO)[C@H](O)[C@@H]1O [A156, (2R,3R,4R,5S)-2-(hydroxymethyl)-5-((5-methoxypyrimidin-4-yl)amino)tetrahydro-2H-pyran-3,4-diol]	10 to 100
OC[C@H]1OC[C@H](Nc2cccc(OC(F)(F)F)n2)[C@@H](O)[C@H]1O [A143, (2R,3R,4R,5S)-2-(hydroxymethyl)-5-((6-(trifluoromethoxy)pyridin-2-yl)amino)tetrahydro-2H-pyran-3,4-diol]	< 10

same assay, conditions: SPR, Biacore 8K, 25° C.; Table 1C, numeric bound; read-out: ASGPR KD

Structure (SMILES)	Kd [µM]
OC[C@H]1OC[C@H](Nc2ncc3cc[nH]c3n2)[C@@H](O)[C@H]1O [A184, (2R,3R,4R,5S)-5-((7H-pyrrolo[2,3-d]pyrimidin-2-yl)amino)-2-(hydroxymethyl)tetrahydro-2H-pyran-3,4-diol]	> 30

same assay, conditions: SPR, Biacore 8K, 25° C.; Table 1C; read-out: ASGPR KD

Structure (SMILES)	Kd [µM]
O=C(O)c1ccc(OC[C@H]2OC[C@H](Nc3nccc(C(F)(F)F)n3)[C@@H](O)[C@H]2O)nn1 [A325]	< 10
O[C@@H]1[C@H](O)[C@@H](Oc2cccc(C(F)(F)F)n2)CO[C@@H]1CN1CCN(c2ccccc2)CC1 [A242]	< 10
CC(C)(C)OC(=O)N1CC=C(c2cccc(N[C@H]3CO[C@H](CO)[C@H](O)[C@@H]3O)n2)CC1 [A195, tert-butyl 6-(((3S,4R,5R,6R)-4,5-dihydroxy-6-(hydroxymethyl)tetrahydro-2H-pyran-3-yl)amino)-3′,6′-dihydro-[2,4′-bipyridine]-1′(2′H)-carboxylate]	< 10
Cc1cncc(N[C@H]2CO[C@H](CO)[C@H](O)[C@@H]2O)n1 [A180, (2R,3R,4R,5S)-2-(hydroxymethyl)-5-((6-methylpyrazin-2-yl)amino)tetrahydro-2H-pyran-3,4-diol]	< 10
C[C@H]1O[C@H](c2ccc3c(c2)CCC3)[C@H](Oc2cccc(C(F)(F)F)n2)[C@@H](O)[C@H]1O [A340]	< 10
Nc1ccc(OC[C@H]2OC[C@H](Oc3cccc(C(F)(F)F)n3)[C@@H](O)[C@H]2O)nn1 [A323]	< 10
O[C@@H]1[C@H](O)[C@@H](Oc2cccc(C(F)(F)F)n2)CO[C@@H]1c1cn(C2CCNCC2)nn1 [A224, (2R,3R,4S,5S)-2-(1-(piperidin-4-yl)-1H-1,2,3-triazol-4-yl)-5-((6-(trifluoromethyl)pyridin-2-yl)oxy)tetrahydro-2H-pyran-3,4-diol]	< 10
O=C(O)c1ccc(CN2CCN(C[C@H]3OC[C@H](Nc4cncc(C(F)(F)F)n4)[C@@H](O)[C@H]3O)CC2)cc1 [A199, 4-((4-(((2R,3R,4R,5S)-3,4-dihydroxy-5-((6-(trifluoromethyl)pyrazin-2-yl)amino)tetrahydro-2H-pyran-2-yl)methyl)piperazin-1-yl)methyl)benzoic acid]	< 10
O=S(=O)(C[C@H]1OC[C@H](Oc2cccc(C(F)(F)F)n2)[C@@H](O)[C@H]1O)c1ccccc1 [A310]	< 10
O[C@@H]1[C@H](O)[C@@H](Nc2cccc(C(F)(F)F)n2)CO[C@@H]1COc1ncccn1 [A226, (2R,3R,4R,5S)-2-((pyrimidin-2-yloxy)methyl)-5-((6-(trifluoromethyl)pyridine-2-yl)amino)tetrahydro-2H-pyran-3,4-diol]	< 10
C[C@H]1O[C@H](c2ncncc2F)[C@H](Oc2cccc(C(F)(F)F)n2)[C@@H](O)[C@H]1O [A338]	< 10
CC(C)(C)OC(=O)N1CC2CN(C[C@H]3OC[C@H](Nc4cncc(C(F)(F)F)n4)[C@@H](O)[C@H]3O)CC21 (stereo partly drawn) [A230, tert-butyl 3-(((2R,3R,4R,5S)-3,4-dihydroxy-5-((6-(trifluoromethyl)pyrazin-2-yl)amino)tetrahydro-2H-pyran-2-yl)methyl)-3,6-diazabicyclo [3.2.0] heptane-6-carboxylate]	< 10
O[C@@H]1[C@@H](Oc2cccc(C(F)(F)F)n2)CSC[C@@H]1O [A345]	< 10
C#C[C@H]1OC[C@H](Oc2cccc(C(F)(F)F)n2)[C@@H](O)[C@H]1O [A219, (2R,3R,4S,5S)-2-ethynyl-5-((6-(trifluoromethyl)pyridin-2-yl)oxy)tetrahydro-2H-pyran-3,4-diol]	< 10
COC(=O)c1ccc(OC[C@H]2O[C@H](C)[C@H](O)[C@H](O)[C@H]2Oc2cccc(C(F)(F)F)n2)nn1 [A315]	< 10

same assay, conditions: SPR, Biacore 8K, 25° C.; Table 1D; read-out: ASGPR KD

Structure (SMILES)	Kd [µM]
O[C@@H]1[C@@H](Oc2cccc(C(F)(F)F)n2)CN(c2noc(-c3ccccc3)n2)C[C@@H]1O [A353]	< 10
O=C(Oc1ccc(-c2ccccc2)cc1)N1C[C@H](Nc2cncc(C(F)(F)F)n2)[C@@H](O)[C@@H](O)C1 [A384]	< 10
O=C(c1ccc(C(F)(F)F)cc1F)N1C[C@H](Nc2cncc(C(F)(F)F)n2)[C@@H](O)[C@@H](O)C1 [A379]	< 10
C[C@H]1O[C@H](c2cc(-c3ccccc3)no2)[C@H](Oc2cccc(C(F)(F)F)n2)[C@@H](O)[C@H]1O [A346]	< 10
O[C@@H]1[C@@H](Oc2cccc(C(F)(F)F)n2)CN(c2cnccn2)C[C@@H]1O [A425]	< 10
O[C@@H]1[C@@H](Nc2cncc(C(F)(F)F)n2)CN(CC(F)(F)F)C[C@@H]1O [A367]	< 10
O[C@@H]1[C@@H](Oc2cccc(C(F)(F)F)n2)CN(c2ccc(C(F)(F)F)cn2)C[C@@H]1O [A427]	< 10
O=C(OCc1ccccc1)N1CCC(N2C[C@H](Nc3cccc(C(F)(F)F)n3)[C@@H](O)[C@@H](O)C2)C(F)(F)C1 (stereo partly drawn) [A412]	< 10
O=C(O)C1CCN(c2ccc(N3C[C@H](Nc4cncc(C(F)(F)F)n4)[C@@H](O)[C@@H](O)C3)nc2)CC1 [A401]	< 10

same assay, conditions: SPR, Biacore 8K, 25° C.; Table 1E; read-out: ASGPR KD

Structure (SMILES)	Kd [µM]
C[C@H]1O[C@H](COc2cnccn2)[C@H](Oc2cccc(C(F)(F)F)n2)[C@@H](O)[C@H]1O [A449]	< 10
C[C@H]1O[C@H](C(C)(C)O)[C@H](Oc2cccc(C(F)(F)F)n2)[C@@H](O)[C@H]1O [A433]	< 10
C[C@H]1O[C@H](C(N)=O)[C@H](Oc2cccc(C(F)(F)F)n2)[C@@H](O)[C@H]1O [A431]	< 10

same assay, conditions: SPR; Table 2; read-out: ASGPR SPR Binding KD

Structure (SMILES)	Kd [µM]
CC1(C)C(=O)c2ccc(-c3cnc(N4CCN5C(=O)N(CCOCCOCCOCC(=O)NC(COCCC(=O)NCCOCCOCCOCCOC[C@H]6OC[C@H](Nc7nccc(C(F)(F)F)n7)[C@@H](O)[C@H]6O)COCCC(=O)NCCOCCOCCOCCOC[C@H]6OC[C@H](Nc7nccc(C(F)(F)F)n7)[C@@H](O)[C@H]6O)C[C@@H]5C4)nc3)nc2N1Cc1cccnc1C#N [compound 22]	< 0.1
